In PubChem BioAssay (NCI):
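1) Cells in 96-well plates. 2) Compound, 48 h, 5 concentrations. 3) Linear interpolation between surrounding doses. 4) Unreached endpoint = highest concentration. Abbreviation: GI50, concentration required for 50% inhibition of growth. Definition used: TGI = concentration required for complete inhibition of growth.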

Assays:
Assay in all cases: growth of human tumour cells (NCI), 48 h
HCT-116 colon = test system: HCT-116 colon
UACC-62 melanoma = test system: UACC-62 melanoma
KM12 colon = test system: KM12 colon
DU-145 prostate = test system: DU-145 prostate
OVCAR-8 ovarian = test system: OVCAR-8 ovarian
A498 renal = test system: A498 renal
SW-620 colon = test system: SW-620 colon
786-0 renal = test system: 786-0 renal
BT-549 breast = test system: BT-549 breast
OVCAR-3 ovarian = test system: OVCAR-3 ovarian
SK-MEL-5 melanoma = test system: SK-MEL-5 melanoma
NCI-H226 lung = test system: NCI-H226 lung
HCT-15 colon = test system: HCT-15 colon
NCI-H23 lung = test system: NCI-H23 lung
T-47D breast = test system: T-47D breast
NCI/ADR-RES ovarian = test system: NCI/ADR-RES ovarian
LOX IMVI melanoma = test system: LOX IMVI melanoma
SF-295 CNS = test system: SF-295 CNS
TK-10 renal = test system: TK-10 renal
NCI-H460 lung = test system: NCI-H460 lung
M14 melanoma = test system: M14 melanoma
CCRF-CEM leukemia = test system: CCRF-CEM leukemia
RXF 393 renal = test system: RXF 393 renal
SR leukemia = test system: SR leukemia
SN12C renal = test system: SN12C renal
SF-268 CNS = test system: SF-268 CNS
HS 578T breast = test system: HS 578T breast
MCF7 breast = test system: MCF7 breast
UO-31 renal = test system: UO-31 renal
PC-3 prostate = test system: PC-3 prostate
SNB-75 CNS = test system: SNB-75 CNS
SNB-19 CNS = test system: SNB-19 CNS
MOLT-4 leukemia = test system: MOLT-4 leukemia
OVCAR-5 ovarian = test system: OVCAR-5 ovarian
UACC-257 melanoma = test system: UACC-257 melanoma
HCC-2998 colon = test system: HCC-2998 colon
COLO 205 colon = test system: COLO 205 colon
K-562 leukemia = test system: K-562 leukemia
HOP-92 NSCLC = test system: HOP-92 NSCLC
MALME-3M melanoma = test system: MALME-3M melanoma
HOP-62 NSCLC = test system: HOP-62 NSCLC
HT29 colon = test system: HT29 colon
RPMI-8226 leukemia = test system: RPMI-8226 leukemia
CAKI-1 renal = test system: CAKI-1 renal
SK-MEL-28 melanoma = test system: SK-MEL-28 melanoma
HL-60(TB) leukemia = test system: HL-60(TB) leukemia
NCI-H522 lung = test system: NCI-H522 lung
IGROV1 ovarian = test system: IGROV1 ovarian
U251 CNS = test system: U251 CNS
MDA-MB-231 breast = test system: MDA-MB-231 breast
SK-MEL-2 melanoma = test system: SK-MEL-2 melanoma
OVCAR-4 ovarian = test system: OVCAR-4 ovarian
A549 NSCLC = test system: A549 NSCLC
ACHN renal = test system: ACHN renal
MDA-MB-435 = test system: MDA-MB-435

SMILES: COc1ccc(S(=O)(=O)Nc2cc(/C=C\c3cc(OC)c(OC)c(OC)c3)cc(OC)c2OC)cc1
- GI50 (HCT-116 colon): 35 nM
- TGI (HCT-116 colon): > 100000 nM
- GI50 (UACC-62 melanoma): 46.1 nM
- TGI (UACC-62 melanoma): 69400 nM
- GI50 (KM12 colon): 39.7 nM
- TGI (KM12 colon): > 100000 nM
- GI50 (DU-145 prostate): 41.6 nM
- TGI (DU-145 prostate): > 100000 nM
- GI50 (OVCAR-8 ovarian): 45.9 nM
- TGI (OVCAR-8 ovarian): > 100000 nM
- GI50 (A498 renal): 21.7 nM
- TGI (A498 renal): 92.4 nM
- GI50 (SW-620 colon): 43.9 nM
- TGI (SW-620 colon): > 100000 nM
- GI50 (786-0 renal): 57.9 nM
- TGI (786-0 renal): 22600 nM
- GI50 (BT-549 breast): 42.5 nM
- TGI (BT-549 breast): 79000 nM
- GI50 (OVCAR-3 ovarian): 34.5 nM
- TGI (OVCAR-3 ovarian): 97.7 nM
- GI50 (SK-MEL-5 melanoma): 35.9 nM
- TGI (SK-MEL-5 melanoma): 168 nM
- GI50 (NCI-H226 lung): 27300 nM
- TGI (NCI-H226 lung): > 100000 nM
- GI50 (HCT-15 colon): 35.8 nM
- TGI (HCT-15 colon): > 100000 nM
- GI50 (NCI-H23 lung): 59.3 nM
- TGI (NCI-H23 lung): > 100000 nM
- GI50 (T-47D breast): 5210 nM
- TGI (T-47D breast): > 100000 nM
- GI50 (NCI/ADR-RES ovarian): 35.3 nM
- TGI (NCI/ADR-RES ovarian): 81500 nM
- GI50 (LOX IMVI melanoma): 50 nM
- TGI (LOX IMVI melanoma): > 100000 nM
- GI50 (SF-295 CNS): 31.1 nM
- TGI (SF-295 CNS): > 100000 nM
- GI50 (TK-10 renal): 65 nM
- TGI (TK-10 renal): 78000 nM
- GI50 (NCI-H460 lung): 36.7 nM
- TGI (NCI-H460 lung): 17000 nM
- GI50 (M14 melanoma): 30.1 nM
- TGI (M14 melanoma): > 100000 nM
- GI50 (CCRF-CEM leukemia): 32.9 nM
- TGI (CCRF-CEM leukemia): > 100000 nM
- GI50 (RXF 393 renal): 40.1 nM
- TGI (RXF 393 renal): 72400 nM
- GI50 (SR leukemia): 35.2 nM
- TGI (SR leukemia): 2370 nM
- GI50 (SN12C renal): 69.8 nM
- TGI (SN12C renal): > 100000 nM
- GI50 (SF-268 CNS): 57.5 nM
- TGI (SF-268 CNS): > 100000 nM
- GI50 (HS 578T breast): 45.2 nM
- TGI (HS 578T breast): > 100000 nM
- GI50 (MCF7 breast): 36 nM
- TGI (MCF7 breast): > 100000 nM
- GI50 (UO-31 renal): 63.5 nM
- TGI (UO-31 renal): 85300 nM
- GI50 (PC-3 prostate): 38 nM
- TGI (PC-3 prostate): > 100000 nM
- GI50 (SNB-75 CNS): 26.5 nM
- TGI (SNB-75 CNS): > 100000 nM
- GI50 (SNB-19 CNS): 60.1 nM
- TGI (SNB-19 CNS): > 100000 nM
- GI50 (MOLT-4 leukemia): 49.5 nM
- TGI (MOLT-4 leukemia): > 100000 nM
- GI50 (OVCAR-5 ovarian): 49.9 nM
- TGI (OVCAR-5 ovarian): > 100000 nM
- GI50 (UACC-257 melanoma): 4100 nM
- TGI (UACC-257 melanoma): 98900 nM
- GI50 (HCC-2998 colon): 39.1 nM
- TGI (HCC-2998 colon): > 100000 nM
- GI50 (COLO 205 colon): 21.4 nM
- TGI (COLO 205 colon): 45.9 nM
- GI50 (K-562 leukemia): 27.2 nM
- TGI (K-562 leukemia): 48200 nM
- GI50 (HOP-92 NSCLC): 1760 nM
- TGI (HOP-92 NSCLC): 82300 nM
- GI50 (MALME-3M melanoma): 12600 nM
- TGI (MALME-3M melanoma): 97300 nM
- GI50 (HOP-62 NSCLC): 40.8 nM
- TGI (HOP-62 NSCLC): > 100000 nM
- GI50 (HT29 colon): 33.1 nM
- TGI (HT29 colon): 122 nM
- GI50 (RPMI-8226 leukemia): 45.9 nM
- TGI (RPMI-8226 leukemia): 13200 nM
- GI50 (CAKI-1 renal): 53.1 nM
- TGI (CAKI-1 renal): 30900 nM
- GI50 (SK-MEL-28 melanoma): 76.5 nM
- TGI (SK-MEL-28 melanoma): > 100000 nM
- GI50 (HL-60(TB) leukemia): 23.4 nM
- TGI (HL-60(TB) leukemia): 63.5 nM
- GI50 (NCI-H522 lung): 19.7 nM
- TGI (NCI-H522 lung): 52 nM
- GI50 (IGROV1 ovarian): 57.7 nM
- TGI (IGROV1 ovarian): > 100000 nM
- GI50 (U251 CNS): 35.7 nM
- TGI (U251 CNS): > 100000 nM
- GI50 (MDA-MB-231 breast): 47.9 nM
- TGI (MDA-MB-231 breast): > 100000 nM
- GI50 (SK-MEL-2 melanoma): 37.4 nM
- TGI (SK-MEL-2 melanoma): 63300 nM
- GI50 (OVCAR-4 ovarian): 84.2 nM
- TGI (OVCAR-4 ovarian): > 100000 nM
- GI50 (A549 NSCLC): 47.4 nM
- TGI (A549 NSCLC): > 100000 nM
- GI50 (ACHN renal): 57 nM
- TGI (ACHN renal): 23200 nM
- GI50 (MDA-MB-435): 21.1 nM
- TGI (MDA-MB-435): 48.2 nM
